Experimental data from US7906520B2, “Methods for treating pain” (The General Hospital Corporation, priority 2003, dated 2011).

What was measured:
[1] = test system: SNI model of neuropathic pain; experiment: Spared nerve injury (SNI) model of neuropathic pain, von Frey and acetone tests; type: in vivo
Procedure: FIGS. 8A-8D represent a series of graphs showing the effect of DAHP on nociceptive behavior in the SNI model of neuropathic pain. Figures on the left show the threshold to mechanical stimuli applied with von Frey hairs (von Frey threshold). Figures on the right show the duration of paw licking, shaking and lifting following acetone application to the paw as a measure for cold allodynia. In FIG. 8A, rats were treated with DAHP (180 mg/kg/d i.p.) for three days starting three days after surgery (early treatment). Nociceptive behavior was assessed daily before and after drug injection. In FIG. 8B, the treatment period was extended to five days (180 mg/kg/d i.p.) starting three days after surgery and pain behavior was assessed daily before and after drug injection and once every second day for an additional week after stopping the daily drug injections. In FIG. 8C, treatment with DAHP (180 mg/kg/d i.p. for 5 days) was started 17 days after surgery i.e. in the chronic phase without any treatment in the early phase. Nociceptive behavior was assessed once daily 3 h after drug injection. In FIG. 8D, animals received a continuous spinal infusion of DAHP (6 mg/kg/d) for 14 days. The infusion was started directly after surgery. Nociceptive behavior was assessed once daily.
FIGS. 16A-16D show the effects of systemic (16A) and intrathecal (16B) treatment with methotrexate (MTX) on the nociceptive behavior in the SNI model of neuropathic pain. […] In FIG. 16A MTX (0.2 mg/kg/d) was injected i.p. once daily starting 5 days after SNI surgery. Nociceptive behavior was assessed once daily three hours after drug injection. In FIG. 16B, MTX was administered as continuous intrathecal infusion (0.1 mg/kg/d for 14 days) starting right after SNI surgery. Nociceptive behavior was assessed once daily. FIGS. 16C and 16D show the body weight gain of animals during systemic (16C) and intrathecal (16D) MTX treatment. Determination of the weight gain was used to assess general well-being and potential toxic effects of MTX.
In this graph, closed triangles represent vehicle, i.p.; open triangles represent DAHP at 90 mg/kg/day, i.p.; open squares represent DAHP at 180 mg/kg/day, i.p.; and open circles represent DAHP at 270 mg/kg/day, i.p.
(§1) All procedures were performed in accordance with Massachusetts General Hospital animal care regulations. Adult male Sprague Dawley rats (200-300 g) were anesthetized with halothane. For the sciatic nerve transection (axotomy), the left sciatic nerve was exposed at the mid thigh level, ligated with 3/0 silk, and sectioned distally. The wound was sutured in two layers, and the animals were allowed to recover. For SNI the tibial and peroneal branch of the sciatic nerve were ligated and transected whereas the sural nerve was spared. For CCI, the sciatic nerve was loosely ligated with dexon 4/0 (three ligatures) and for the spinal ligation model the L5 spinal segmental nerve was ligated.

[2] = test system: SNI model; experiment: SNI model, L-NAME versus DAHP; type: in vivo; settings: DAHP 120 mg/kg i.p. single dose vs L-NAME 25 mg/kg i.p.
Procedure: (§2) In this figure, closed circles represent nNOS knockout mice with DAHP; open circles, nNOS knock out mice with vehicle; closed triangles, wild type mice with DAHP; and open triangles, wild type mice with vehicle. […] In this figure, closed triangles represent L-NAME administration; open circles, L-NAME+DAHP administration; closed circles, DAHP administration; and open triangles, vehicle administration. L-NAME was administered at 25 mg/kg, i.p., single dose, and DAHP was administered at 120 mg/kg, i.p., single dose. The antinociceptive efficacy of this high L-NAME dose is weaker (about 50%) than that of a moderate dose of DAHP.

[3] = test system: CCI model of neuropathic pain; experiment: Chronic constriction injury (CCI) model of neuropathic pain; type: in vivo, rat; settings: 180 mg/kg/d i.p.
Procedure: FIGS. 9A and 9B are two graphs showing the effect of DAHP on nociceptive behavior in the CCI model of neuropathic pain. […] DAHP treatment (180 mg/kg/d i.p. for 5 days) was started 3 days after surgery and nociceptive behavior was assessed daily before and after drug injection and once every second day after stopping daily drug injections.
as §1

[4] = test system: SNI model, nNOS knockout mice; experiment: SNI model in nNOS knockout and wild-type mice; type: in vivo; settings: mechanical or cold stimuli
Procedure: as §2

[5] = test system: CFA-induced paw inflammation; experiment: CFA model of inflammatory pain: Hargreaves test and paw weight; type: in vivo, rat
Procedure: FIGS. 11A-11E are a series of graphs showing the effect of DHAP on thermal hyperalgesia in the CFA model which is a model for inflammatory pain. […] On the left end of the graph, two doses of DAHP (180 mg/kg i.p.) were injected, the first 30 minutes before injection of CFA into the hindpaw, the second 4 hours after CFA (indicated with arrows D1 and D2). On the right, a single dose (dotted arrow D1) of DAHP (180 mg/kg i.p.) was injected 24 h after induction of paw inflammation without any treatment during the first 24 h following CFA injection. […] In FIGS. 11C-11D, the effects of systemically administered DAHP (180 mg/kg i.p. single dose; 11C) are compared with the effects of a single intrathecal dose (1 mg/kg i.t.; 11D) which was administered via a lumbar spinal catheter. In both cases, treatment was started 24 hours after CFA injection into the hindpaw. Because of slightly different baseline levels (11C compared with 11D) effects of DAHP after i.p. and i.t. treatment are additionally presented as percentage change of paw withdrawal latency (FIG. 11E) to allow for a direct comparison of both routes of administration.
FIG. 12 is a bar graph showing the increase of the paw weight of the inflamed paw compared with the contralateral paw. Paw weight was determined 48 hours following CFA injection. The increase of the paw weight is a measure for the inflammatory paw edema and therefore allows assessment of paw inflammation.
FIGS. 15A and 15B show the effect of the sepiapterin reductase inhibitor, N-acetyl-serotonin (NAS) on thermal hyperalgesia in the CFA model. The paw withdrawal latency (PWL) to radiant heat (Hargreaves test) is a measure for the heat sensitivity. NAS treatment (single dose of 50 mg/kg i.p.) was started 24 hours after CFA injection into the hindpaw. Data are presented as percentage change of the PWL compared with the PWL of the non-inflamed contralateral paw. […] Paw weight was determined 48 hours following CFA injection. The increase of the paw weight is a measure for the inflammatory paw edema.
Hypersensitivity was induced using the CFA model of paw inflammation. In these experiments, BH4 was injected at time “zero” after measurement of baseline paw withdrawal latency.

[6] = DAHP 6 mg/kg/day continuous intrathecal infusion
[7] = DAHP 180 mg/kg/day i.p., started 3 or 17 days post-surgery, vs vehicle

Nc1cc(O)nc(N)n1 [DAHP, 2,4-Diamino-6-hydroxypyrimidine]
cold allodynia [1, 6]: reduced | mechanical allodynia [1, 6]: reduced | cold pain (cold allodynia, acetone) [1, 7]: reduction | mechanical sensitivity (von Frey threshold) [1, 7]: reduction in mechanical sensitivity | dose-effect relationship, nociceptive response to mechanical or cold stimuli ([1]; DAHP 90, 180, 270 mg/kg/day i.p.): dose-dependent relationship | antinociceptive effect compared with L-NAME [2]: stronger antinociceptive effect | analgesic effects in CCI model [3]: analgesic effects of DAHP were further confirmed | anti-nociceptive effects in nNOS knockout vs wild-type mice [4]: do not differ between nNOS knockout mice and wild-type mice | thermal hyperalgesia ([5]; DAHP 1 mg/kg i.t. via lumbar spinal catheter): reduced thermal hyperalgesia | paw withdrawal latency of the non-inflamed contralateral paw ([5]; DAHP 180 mg/kg i.p.): no effect | thermal hyperalgesia ([5]; DAHP 180 mg/kg i.p., 30 min before or 24 h after CFA): reduced thermal hyperalgesia | inflammatory paw edema (paw weight) ([5]; DAHP treated vs control, 48 hours after CFA): no difference in the degree of paw inflammation
